We go through one compound from patent US20050124618A1, “Methods of modulating angiogenesis and cancer cell proliferation” (priority 2003, published 2005).

Experiment [1] concerns extensor digitorum longus (EDL) and tibialis anterior (TA) muscles. Kind of experiment: Vessel density of EDL and TA muscles after 7 days of electrical stimulation. The experiment is classed as in vivo, rat. Here is the method:
Experimental protocols and tissue preparation: After a 24-h recovery period, the implanted stimulator was activated by momentary closure of the magnetic reed switch using a small hand-held magnet. […] Contractions of the extensor digitorum longus (EDL) and tibialis anterior (TA) muscles were automatically initiated at 9 AM each day and sustained for 8 h/day over a consecutive 7-day period. At the end of the stimulation period, the animals were euthanized by an overdose of pentobarbital sodium (100 mg/kg ip), and the EDL and TA muscles were harvested for analysis as previously described (Greene A S et al., Hypertension 15: 779-783, 1990; and Parmentier J H et al., Hypertension 37: 623-629, 2001).
Tissue harvest and morphological analysis of vessel density: The stimulated and contralateral muscles were removed, weighed, and rinsed in physiological salt solution. A 300-mg sample was taken from the rostral portion of the TA muscle and frozen in liquid nitrogen for Western blot (100 mg) and HPLC (200 mg) analysis for measurement of VEGF protein expression and 20-HETE formation, respectively. The remaining TA and EDL muscles were lightly fixed in a 0.25% formalin solution overnight. The muscles were sectioned via a manual microtome to a thickness of about 100 μm by securing the tendons and slicing parallel to the longitudinal orientation of the muscle fibers. From every animal, two slices of each EDL muscle and three slices of each TA muscle were made. The slices were than immersed for 2 h in a solution of 25 μg/ml rhodamine-labeled Griffonia simplicifolia I (GS-I) lectin (Sigma; St. Louis, Mo. (Greene A S et al., Hypertension 15: 779-783, 1990)). Immediately after this 2-h exposure to GS-I lectin, the muscles were rinsed in physiological solution. The rinsing procedure was repeated after 15 and 30 min, and the muscles were rinsed in physiological saline solution for 12 h (overnight, at 4° C.). On the next day, the slices were mounted on microscope slides with a water-soluble mounting medium consisting of toluene and acrylic resin (SP ACCU-MOUNT 280, Baxter Scientific).
The labeled sections were visualized using a video fluorescent microscope system (Olympus ULWD CD Plan, ×20 objective, 1.6 cm working distance and 0.4 numerical aperture) with epi-illumination, as previously described (Parmentier J H et al., Hypertension 37: 623-629, 2001). In the present study, 10-15 and 20-25 representative fields were selected for study from each EDL and TA muscle slice, respectively. Each field was converted to a digitized image (DT2801 Data Translation; Marlboro, Mass.) and stored as an 8-bit/pixel image file with a resolution of 512×512 pixels. Morphometric analysis of the scanned histochemical sections was done as previously described (Parmentier J H et al., Hypertension 37: 623-629, 2001).
Data analysis and statistics: For each muscle, the vessel counts of all the selected fields (10-15 scans×2 slices for each EDL muscle; 20-25 scans×3 slices for each TA muscle) were averaged to a single vessel density. Vessel density was expressed in terms of the mean number of vessel-grid intersections per microscope field (0.224 mm^2). For each experimental group, the measured vessel density and 20-HETE formation of the stimulated muscle was compared with its unstimulated counterpart as well as with age-matched controls. All values are presented as means±SE. The significance of differences in values measured in the same animal was evaluated using a two-factor ANOVA (drug×stimulation) with repeated measures on one factor (stimulation). Significant differences were further investigated using a post hoc test (Tukey's).

The subject of a further experiment is U251 human glioma cells. Kind of experiment: Flow cytometry of cell cycle distribution in U251 cells. The settings on record: 10 μM HET0016, 24 and 48 hr. The experiment is classed as cell-based. Here is the method:
Flow Cytometry: Cells were cultured in 100-mm dishes at densities that ensured exponential growth at the time of harvest. The harvesting and processing protocols used to detect DNA by flow cytometry with propidium iodide (PI) have been described previously (Reiners et al., Carcinogenesis 20: 1561-1566, 1999). Cells were analyzed with a Becton Dickinson FACScan in the Wayne State University Flow Cytometry Core Facility, Detroit, Mich. Percentages of cells in the G0/G1, S, and G2/M stages of the cell cycle were determined with a DNA histogram-fitting program (MODFIT; Verity Software, Topsham, Me.). A minimum of 10^4 events/sample were collected.
Background: In flow cytometry, cells or beads pass a laser one at a time.

A further experiment relates to 9L gliosarcoma tumors. Kind of experiment: Growth of 9L gliosarcoma brain tumors in rats (tumor volume). The format is in vivo, rat. Here is the method: Tumor Implantation: Before implantation, 90% confluent 9L cells were trypsinized and centrifuged. The cell pellet was resuspended in DMEM+10% FBS and counted using a hemocytometer. The concentration of the 9L cells was adjusted to 1×10^4 cells/5 μl of medium. p The brain tumors were seeded by injecting the 9L cell suspensions into the frontal cerebral cortex of Fisher 344 rats that were purchased from Charles River Laboratories (Wilmington, Mass.) as follows. The rats were anesthetized with ketamine (80 mg/Kg, im) and Xylazine (13 mg/Kg), the head was immobilized in a stereotactic frame (David Kopf Instruments, Tujunga, Calif.) and the skull was exposed. A small hole was drilled in the skull 2 mm lateral and 2.5 mm anterior of the bregma, and 5 μl of the 9L gliosarcoma cell suspension were injected 3.5 mm into to cerebral cortex over a 5 min period using a 10 μl Hamilton (#2701) syringe attached to a 26 gauge needle. The hole was sealed with bone wax and the incisions were closed. […] The brains were removed and stored in 10% formalin. […]
Images of H&E stained sections containing tumor were captured using a SONY CCD camera using 2× objective. Using the AIS Image Analysis System (Imaging Research, St. Catherine, ON, Canada) software, the area of tumor in each section was manually outlined and measured in mm^2. […]

The mark [2] stands for this setting: chronic treatment, 7 days electrical stimulation.

Entries after “also recorded” stand apart in the source; their conditions may differ.

As to `CCCCc1ccc(N=CNO)c(C)c1` [HET0016, N-hydroxy-N′-(4-butyl-2 methylphenyl) formamidine], the “effect on the increase in vessel density (angiogenesis) induced by electrical stimulation” value in experiment [1] (7 days, HET0016 2 mg kg−1 day−1, ABT 50 mg kg−1 day−1) was “completely blocked”. For the same compound, in experiment [1] (chronic treatment, 7 days), the “vessel density, EDL, unstimulated side” value was 116.0±1.0 number of vessel intersections and the “vessel density, TA, unstimulated side” value was 105.7±4.9 number of vessel intersections. In experiment [1] (setting [2]), the “vessel density, EDL, stimulated side” value is 118.0±10.1 number of vessel intersections and the “vessel density, TA, stimulated side” value is 110.5±1.1 number of vessel intersections. The “effect on cell cycle distribution” value in the experiment with U251 human glioma cells is recorded as “arresting the cell cycle at G0/G1; also recorded: Cells containing G0/G1 DNA accumulated”. For the same compound, in the experiment on 9L gliosarcoma tumors (9L cells in rat forebrain, HET0016 10 mg/kg/day sc for 15 days, b179 prints 1 mg/Kg/day, ip, about 2 weeks), the “reduction of the volume of the brain tumor compared to control animals” value stood at 80%. Besides, the “appearance of rats and tumor size at necropsy” value with 9L gliosarcoma tumors (17 days after implantation of the tumor) was “looked healthier; also recorded: much smaller tumor at necropsy”.
